Results published in patent US10513513B2, “Salts of quinazoline derivative or crystals thereof, and the process for producing thereof” (Shionogi & Co., Ltd., priority 2015, dated 2019).
Counter-ions that a name gives are not always drawn.

Columns and labels:
Format in all cases: physicochemical
[1] = Stability test of crystals on heating (NMR before/after); conditions: heated at 50° C. for 8 hours
Description: (Results of Stability Test)
The crystals of Compound (IIA) obtained in Example 21 were heated at 50° C. for 8 hours and measured NMR data.

[2] = Observation of hygroscopicity of isolated salt; conditions: isolated solid
Description: Ethyl acetate (8 mL) was added to Compound 3 (4.12 g, 17.7 mmol), and the mixture was stirred. When 4 mol/L a solution (16 mL) of hydrochloric acid in ethyl acetate was added, white solids were precipitated. Ethyl acetate (8 mL) was added, and then the mixture was stirred for about 4 hours at room temperature.
Benzenesulfonic acid (78.57 mg) and tetrahydrofuran (0.2 mL) were stirred at 50° C., and a tetrahydrofuran (0.2 mL) solution of Compound 3 (51.54 mg, 0.222 mmol) was added dropwise. After about 20 minutes, cooling the mixture to room temperature caused solids to precipitate. Then, 0.15 mL of tetrahydrofuran was added, and the mixture was stirred at 50° C. for 10 minutes and cooled to 10° C.

[3] = Test of solubility in organic solvent; conditions: stirred at 22° C. for 4 hours, supernatant, HPLC Method B; for Concentration (% by weight) in 2-Propanol: suspended in 2-propanol; for Concentration (% by weight) in Acetone: suspended in acetone; for Concentration (% by weight) in Ethyl acetate: suspended in ethyl acetate
Description: (Test of Solubility in Organic Solvent)
The monohydrochloride crystal Form I, monohydrochloride crystal Form V, and free base crystals of Compound (I) were each suspended in 2-propanol, acetone, and ethyl acetate, and stirred at 22° C. for 4 hours, and the concentrations of supernatants were measured (HPLC: Method B).

[4] = Test of solubility in water for injection; conditions: stirred at 37° C. for 1 hour, HPLC Method A
Description: (Test of Solubility in Water for Injection)
1. Preparation of Calibration Curve
First, 5 mg of monohydrochloride crystal Form I of Compound (I) was precisely weighed and dissolved in a mixed solution of acetonitrile:water (1:1), and thus a 500 μg/mL solution was obtained. The obtained solution was diluted with a mixed solution of acetonitrile:water (1:1) such that the concentrations of the compound were 5 and 50 μg/mL. Accordingly, a standard calibration curve was prepared according to HPLC measurement conditions (Method A). The same operation was carried out for monohydrochloride crystal Form II, monohydrochloride crystal Form V, monohydrochloride crystal Form VI, mono-p-toluenesulfonate crystal Form I, and free base crystals.
2. Preparation of Sample Solution
First, 1 mg of monohydrochloride crystal Form I of Compound (I) was precisely weighed and transferred to a vial having a volume of 4 mL. Then, 1 mL of water (water for injection) was added, and the mixture was stirred at 37° C. for 1 hour. After being stirred, this suspension was filtered, and the peak area was measured under HPLC measurement conditions (Method A) using a solution obtained by diluting the filtrate two-fold with a mixed solution of acetonitrile:water (1:1) as a sample. The concentration was calculated using the peak area and the calibration curve prepared above. The same operation was carried out for monohydrochloride crystal Form II, monohydrochloride crystal Form V, monohydrochloride crystal Form VI, mono-p-toluenesulfonate crystal Form I, and free base crystals.

[5] = Light exposure test (photostability); conditions: for E isomer (Retention time 38 minutes), Light exposed sample: D65 lamp, total illuminance about 1.2 million lx·hr; for E isomer (Retention time 38 minutes), Light exposed sample / E isomer (Retention time 38 minutes), Dark control: HPLC Method B; for E isomer (Retention time 38 minutes), Increased amount: light exposed sample minus dark control
Excerpt: The photostability test is one of the methods for measuring chemical or physicochemical changes of an active pharmaceutical ingredient or a pharmaceutical preparation caused by light exposure to evaluate properties of a sample with respect to light. In the photostability test, a sample such as an active pharmaceutical ingredient or a pharmaceutical preparation is irradiated with light at a specified output for a certain period of time. Properties of the sample with respect to light can be evaluated by analyzing the impurities and analogous substances, crystal form, color difference, and the like of the sample by scientific techniques (such as high performance liquid chromatography, X-ray crystal diffraction, and colorimetry) when a specified total illuminance is reached. In order to verify that a specified amount of light exposure is attained, the amount of light exposure is managed using a radiometer or a luminometer, and a test is carried out using an actinometric system.
(Photostability Measurement)
A photostability test was performed using a photostability tester (model LTL200A5-15WCD) by Nagano Science. A D65 lamp was used as an irradiation source of light, and light was irradiated to a total illuminance of about 1.2 million 1×·hr under 4000 lx·hr conditions.
The quality evaluations of the respective crystals were carried out using HPLC (Method B).

[6] = Moisture sorption-desorption isothermal measurement; conditions: for Ratio of increased mass in moisture desorption isothermal measurement: ratio at 0% Target % P/P0 after desorption, 25° C.; for Ratio of increased mass (moisture sorption): mass increase at 95% Target % P/P0 relative to mass at 0% Target % P/P0, 25° C.
Excerpt: (Moisture Sorption-Desorption Isothermal Measurement)
Moisture sorption-desorption isothermal measurement is measuring the weight changes of a subject solid under various relative humidity conditions, and is a method for determining moisture sorption-desorption behaviors.
As a basic measurement method, the relative humidity is increased in increments of 5% or 10% based on the dry weight at 0% Target % P/P0 (relative humidity 0%), and after the weights at respective relative humidities are stabilized, the amount of adsorbed water can be obtained from the weight increased from a reference value. Similarly, it is possible to measure the amount of desorbed water by reducing the relative humidity in increments of 5% or 10% from 100% Target % P/P0.
Sorption and desorption isotherms can be obtained by plotting the weight change values at respective relative humidities. From the results, it is possible to investigate the sorption and desorption phenomena of attached moisture at respective humidities. Also, when anhydride crystals and hydrate crystals undergo mutual crystal transition due to humidity, it is possible to calculate the humidity, at which crystal transition occurs, and the amount of water of crystallization.
Since the sorption and desorption of attached water and water of crystallization are affected by the particle size, degree of crystallinity, crystal habit, and the like, the measurement results may slightly vary.
Moisture sorption-desorption isothermal measurement was performed on the crystals obtained in each Example. About 10 mg of a sample was weighed onto a sample pan, and measurement was performed. Measurement conditions are as shown below.
Device: DVS Advantage by Surface Measurement Systems Ltd.
Measurement points: from 0% Target % P/P0 to 95% Target % P/P0 in increments of 5%, then from 95% Target % P/P0 to 0% Target % P/P0 in decrements of 5% Temperature: 25° C. […]

[7] = listed as mono-p-toluenesulfonate crystal Form I
[8] = listed as Monohydrochloride form crystal VI
[9] = listed as Monohydrochloride form crystal V

| Structure (SMILES) | Concentration (% by weight) in 2-Propanol [3] | Concentration (% by weight) in Acetone [3] | Concentration (% by weight) in Ethyl acetate [3] | E isomer (Retention time 38 minutes), Light exposed sample [5] | E isomer (Retention time 38 minutes), Increased amount [5] | Ratio of increased mass in moisture desorption isothermal measurement [6] | Solubility in water for injection [4] | E isomer (Retention time 38 minutes), Dark control [5] | Ratio of increased mass (moisture sorption) [6] | also measured |
| --- | --- | --- | --- | --- | --- | --- | --- | --- | --- | --- |
| NOC[C@H]1COCCN1 [Compound (IIA)] |  |  |  |  |  |  |  |  |  | Stability of crystals on heating (change of NMR peaks) [1]: no changes to the peaks were observed |
| NOC[C@H]1COCCN1 [Compound (II′)] |  |  |  |  |  |  |  |  |  | Hygroscopicity (observation) [2]: absorbed moisture and deliquesced |
| NOC[C@H]1COCCN1 [Compound (II″)] |  |  |  |  |  |  |  |  |  | Hygroscopicity (observation) [2]: highly hygroscopic |
| CC#C/C(=N\OC[C@H]1COCCN1)c1ccc2ncnc(Nc3ccc(OCc4cccc(F)c4)c(Cl)c3)c2c1 [Free base crystal] | 0.49 % by weight | 8.1 % by weight | 3.3 % by weight | 2.59 area % | 2.59 area % | about 0.16% |  |  |  | Solubility in water for injection ([4]; listed as free base crystals): not dissolved in water for injection at all |
| CC#C/C(=N\OC[C@H]1COCCN1)c1ccc2ncnc(Nc3ccc(OCc4cccc(F)c4)c(Cl)c3)c2c1 [Monohydrochloride crystal Form VI] |  |  |  |  |  | about 0.06% | 12.9 µg/mL |  | small | Solubility in water for injection ([4]; listed as monohydrochloride crystal Form VI): high solubilities; E isomer (Retention time 38 minutes), Light exposed sample [5, 8]: 1.80 area %; E isomer (Retention time 38 minutes), Dark control [5, 8]: 1.16 area %; E isomer (Retention time 38 minutes), Increased amount [5, 8]: 0.64 area % |
| CC#C/C(=N\OC[C@H]1COCCN1)c1ccc2ncnc(Nc3ccc(OCc4cccc(F)c4)c(Cl)c3)c2c1 [Monosulfate crystal] |  |  |  |  |  | about 0.13% |  |  |  | Ratio of increased mass (moisture sorption) ([6]; listed as monosulfate crystals): about 3.3% |

Continued, in another order:

| Concentration (% by weight) in 2-Propanol [3] | Concentration (% by weight) in Acetone [3] | Concentration (% by weight) in Ethyl acetate [3] | E isomer (Retention time 38 minutes), Light exposed sample [5] | E isomer (Retention time 38 minutes), Increased amount [5] | Ratio of increased mass in moisture desorption isothermal measurement [6] | Solubility in water for injection [4] | E isomer (Retention time 38 minutes), Dark control [5] | Ratio of increased mass (moisture sorption) [6] | Structure (SMILES) | also measured |
| --- | --- | --- | --- | --- | --- | --- | --- | --- | --- | --- |
|  |  |  | 32.86 area % | 32.76 area % | about 0.12% | 26.6 µg/mL | 0.10 area % | small | CC#C/C(=N\OC[C@H]1COCCN1)c1ccc2ncnc(Nc3ccc(OCc4cccc(F)c4)c(Cl)c3)c2c1 [Mono-p-toluenesulfonate crystal Form I] | Solubility in water for injection [4, 7]: high solubilities; E isomer (Retention time 38 minutes), Increased amount [5, 7]: about 33 area % |
|  |  |  | 1.21 area % | −0.23 area % | about 0.05% | 56.0 µg/mL | 1.44 area % | small | CC#C/C(=N\OC[C@H]1COCCN1)c1ccc2ncnc(Nc3ccc(OCc4cccc(F)c4)c(Cl)c3)c2c1 [Monohydrochloride crystal Form II] | Solubility in water for injection ([4]; listed as monohydrochloride crystal Form II): high solubilities |
| 0.03 % by weight | 0.08 % by weight | 0.01 % by weight | 4.41 area % | 3.78 area % | about 0.08% | 34.5 µg/mL | 0.63 area % | small | CC#C/C(=N\OC[C@H]1COCCN1)c1ccc2ncnc(Nc3ccc(OCc4cccc(F)c4)c(Cl)c3)c2c1 [Monohydrochloride crystal Form I] | Solubility in water for injection ([4]; listed as monohydrochloride crystal Form I): high solubilities |
| 0.01 % by weight | 0.02 % by weight | 0.00 % by weight |  |  | about 0.05% | 14.0 µg/mL |  | small | CC#C/C(=N\OC[C@H]1COCCN1)c1ccc2ncnc(Nc3ccc(OCc4cccc(F)c4)c(Cl)c3)c2c1 [Monohydrochloride crystal Form V] | Solubility in water for injection ([4]; listed as monohydrochloride crystal Form V): high solubilities; E isomer (Retention time 38 minutes), Light exposed sample [5, 9]: 1.19 area %; E isomer (Retention time 38 minutes), Dark control [5, 9]: 0.13 area %; E isomer (Retention time 38 minutes), Increased amount [5, 9]: 1.06 area % |
